{"source": "patent US7825104B2", "about": "“Methods and compositions for treating fungal infections” (Ramot at Tel Aviv University Ltd., priority 2001, dated 2010)", "key": {"[1]": {"details": "ORL-RAT; cited from earlier work"}, "[2]": {"details": "cited from earlier work"}, "[3]": {"test_system": "Bacilus megaterium", "experiment": "in vitro effect on Bacillus megaterium (control, Cyt P-450 containing bacteria)", "format": "cell-based", "details": "solution of about 5-10 mg/ml"}, "[4]": {"test_system": "Trichophyton rubrum", "experiment": "in vitro fungicidal/fungistatic test on T. rubrum cultures", "format": "cell-based", "details": "concentration range of 5-10 mg/ml tested", "description": "An in vitro test was designed for testing the fungicidal or fungistatic activity of PBA and its water-soluble derivatives. Cultures of T. rubrum were grown on 100 microliters SDB agar in a standard 96 well plate. Following an initial growth period of about 24 hours, each well was treated with 50-100 microliters of the reagent tested. Following an appropriate incubation period with or without washing, residual viability was estimated from comparison with appropriate controls, followed by secondary verification of viability tests by transfer of a part of the treated culture into a fresh well for optional recovery and growth. […] The photograph was taken four days after treatment."}, "[5]": {"test_system": "Candida parapsilosis", "experiment": "in vitro fungicidal/inhibitory effect on Candida parapsilosis", "format": "cell-based"}}, "data": [{"molecule": "OB(O)c1ccccc1", "note": "[PBA, Phenyl boronic acid]", "values": [{"measurement": "LD50", "setting": "[1]", "result": 740, "unit": "mg/kg"}, {"measurement": "solubility in water", "setting": "[2]", "result": "reasonably soluble in water"}, {"measurement": "activity against Bacillus megaterium", "setting": "[3]", "result": "antibiotic activity"}, {"measurement": "effect on T. rubrum", "setting": "[4]", "result": "fungicidal"}, {"measurement": "effect on C. parapsylosis", "setting": "[5]; 5 mg/ml", "result": "fungistatic"}, {"measurement": "effect on C. parapsylosis", "setting": "[5]; 10 mg/ml", "result": "fungicidal"}]}]}
